This is an account of results in patent US6664224B2, “Quaternary ammonium salt and process for the preparation thereof” (priority 2000, dated 2003).

Series [1] deals with Escherichia coli K12 W 3110. In words: MIC by agar plate dilution method. The series is classed as cell-based. Particulars: E. coli, 37° C. 24 hours. The procedure:
(§1) MIC value was determined by an agar plate dilution method according to the Law of Japanese Society of Chemotherapy. In some detail, a bacteria solution in stationary state which had been adjusted with a nutrient broth such that the concentration of bacterial suspension reached 10^6 cell/ml was added to agar culture media containing chemical solutions having concentrations which vary in two stages where it was then allowed to stand at a temperature of 37° C. for 24 hours for culture. The bacteria solution was then examined to see if the proliferation of bacteria occurred. Thus, MIC was determined.
(§2) The following three kinds of bacteria were used as sample bacteria:
Escherichia coliK12 W 3110 (E. coli);

The subject of a further series is A. niger. Put plainly: Anti-septic power test (USP XX). The series is classed as cell-based, Aspergillus niger. Particulars: test sample 0.002 wt %. The procedure: (§3) Solutions prepared according to the formulation set forth in Tables 10 and 11 below were subjected to anti-septic power test according to the method defined in Pharmacopoeia of the United States XX, 873 (1980). The solutions thus tested were then observed for anti-septic power after 1 hour, 4 hours, 24 hours, 7 days, 14 days, 21 days and 28 days. As test microorganisms, E. coli, P. auru. and S. Aureus were used as bacteria and A. niger and C. albicans were used as fungi. 4BAMP-6C and benzalkonium chloride were used as test samples.

Series [2] concerns Escherichia coli K12 W 3110. Put plainly: Minimum development inhibiting concentration (MIC) against bacteria, broth dilution method. The series is classed as cell-based. To be noted: 37° C. 24 hours. As for the experimental part:
A bacteria solution in stationary state which had been adjusted with a nutrient broth according to an ordinary broth dilution method such that the concentration of bacterial suspension reached 10^6 cell/ml was added to chemical solutions having concentrations which vary stepwise where it was then allowed to stand at a temperature of 37° C. for 24 hours for culture. The bacteria solution was then examined to see if the proliferation of bacteria occurred. Thus, MIC was determined.
Escherichia coli K12 W 3110 was used as a sample bacterium. Compounds obtained in Examples 1 to 9 and benzalkonium chloride prepared in Comparative Example 1 were used as test samples.
The compounds obtained in Examples 10 to 19 and benzalkonium chloride were determined for MIC value against Escherichia coli K12 W 3110 in the same manner as in Test Example 3.

A further series deals with C. albicans. Put plainly: Anti-septic power test (USP XX). The series is classed as cell-based, Candida albicans. Particulars: test sample 0.002 wt %. As for the experimental part:
as §3

Series [3] is described as follows: Interaction with eye drop components (visual transparency). In kind it is physicochemical. Particulars: for Results (transparency of neutralized solution): in 1% sodium chloride solution. As for the experimental part: Eye drop components and the preservative of the invention were dissolved in a 1% sodium chloride solution. The solution was then neutralized with a proper amount of diluted hydrochloric acid or sodium hydroxide. The neutralized solution thus obtained was then visually observed for transparency. Chondroitin sodium sulfate (hereinafter abbreviated as “SKA”), sodium hyaluronate (hereinafter abbreviated as “SHA”), sodium cromoglicate (hereinafter abbreviated as “SCA”), sodium dimethylisopropylazulenesulfonate (hereinafter abbreviated as “SDPA”), and flavin-adenine dinucleotide (hereinafter abbreviated as “FA”) were used as the eye drop components. 4BAMP-6C (Example 1) and benzalkonium chloride (Comparative Example 1) were used as test samples of preservative.

The subject of series [4] is Pseudomonas aeruginosa ATCC27583. Put plainly: MIC by agar plate dilution method. The series is classed as cell-based. Particulars: P. aeruginosa, 37° C. 24 hours. As for the experimental part: as §1, §2
Pseudomonas aeruginosa ATCC27583 (P. auruginosa); and […]

The test system of series [5] is Bacillus substilis ATCC 6633. Put plainly: Minimum bactericidal concentration (MBC) against bacteria. The series is classed as cell-based, Bacillus subtilis. To be noted: contact 30° C. 30 minutes, culture 37° C. 24 hours. As for the experimental part:
A bacteria solution in the initial stage of logarithmic productive phase which had been adjusted with a nutrient broth according to an ordinary sterilized water dilution method such that the concentration of bacterial suspension reached 10^6 cell/ml was brought into contact with chemical solutions having concentrations which vary stepwise at a temperature of 30° C. for 30 minutes, and then transplanted to a nutrient broth where it was then allowed to stand at a temperature of 37° C. for 24 hours for culture. The nutrient broth was then examined to see if the proliferation of bacteria occurred. Thus, MBC was determined.
Five kinds of gram-negative bacteria and four kinds of gram-positive bacteria were used as sample bacteria.
BAMP-6 (Example 12), BAMD-6,8 (Example 13), BAMT-6 (Example 17) and benzalkonium chloride (Comparative Example 1) were determined for MBC value against 5 kinds of gram-negative bacteria and 4 kinds of gram-positive bacteria in the same manner as in Test Example 1.

Series [6] relates to Aspergillus niger IFO 6431. Put plainly: Minimum development inhibiting concentration (MIC) against fungi. Particulars: A. niger; spore solution, 27° C. 1 week. The series is classed as cell-based. As for the experimental part: (§4) A sample fungus which had been pre-cultured was diluted with a wetting agent-containing sterilized water according to an ordinary broth dilution method to prepare a spore solution. 1 ml of the spore solution was then mixed with 1 ml of each of chemical solutions having concentrations which vary stepwise. The mixture was then cultured at a temperature of 27° C. in an incubator for 1 week. The culture was then examined for turbidity to see if the proliferation of fungus occurred. The minimum concentration at which no turbidity occurs was defined to be MIC.
(§5) Aspergillus niger IFO 6431 (A. niger) and Candida albicans ATCC10231 (C. albicans) were used as sample microorganisms.

Series [7] concerns Candida albicans ATCC10231. The description is as above. To be noted: C. albicans; spore solution, 27° C. 1 week. In kind it is cell-based. The procedure:
as §4, §5

The next series relates to E. coli. In words: Anti-septic power test (USP XX). Particulars: test sample 0.002 wt %. The series is classed as cell-based, Escherichia coli. As for the experimental part:
as §3

Setting [8] is: Formulation 1 (chondroitin sodium sulfate 1 wt %).

As for “1,4-bis(N,N-dihexyl-N-methylammoniomethyl)phenylene dichloride [Example 4BAMP-6C]”, the MIC in series [1] is listed as 8 ppm; in [4], less than 2 ppm; in series [6] it was 16 ppm; in [7] it was 4 ppm. The “time at which the desired anti-septic effect was confirmed” value with A. niger (setting [8]) was determined as 7 days; with A. niger (Formulation 2 (taurin 1 wt %)) it was 14 days; with C. albicans (setting [8]) it was 7 days; with C. albicans (Formulation 2 (taurin 1 wt %)), 7 days; in the series on E. coli (setting [8]), 1 h; with E. coli (Formulation 2 (taurin 1 wt %)), 1 h. For the same substance, in [2], the “MIC Escherichia coli K12 W 3110” value came to 2 ppm. Moreover, the “Results (transparency of neutralized solution)” value in series [3] (FA 0.1%, 4BAMP-6C 0.1%) is listed as “Transparent”; in [3] (SCA 3%, 4BAMP-6C 0.1%), “Transparent”; in series [3] (SDPA 0.05%, 4BAMP-6C 0.1%), “Transparent”; in series [3] (SHA 0.2%, 4BAMP-6C 0.1%), “Transparent”; in series [3] (SKA 3%, 4BAMP-6C 0.1%), “Transparent”. In series [5], the MBC is less than 2 ppm.

“benzalkonium chloride [reference compound]”: the MIC in series [1] came out at 32 ppm; in series [4] it was 8 ppm; in series [6], 32 ppm; in series [7], 16 ppm. Further, the “time at which the desired anti-septic effect was confirmed” value with A. niger (setting [8]) is listed as 28 days; in the series on A. niger (Formulation 2 (taurin 1 wt %)), 28 days; in the series with C. albicans (setting [8]), 21 days; in the series with C. albicans (Formulation 2 (taurin 1 wt %)), 21 days; with E. coli (setting [8]), 24 hrs. hr; in the series with E. coli (Formulation 2 (taurin 1 wt %)), 24 hrs. hr. Besides, the “MIC Escherichia coli K12 W 3110” value in series [2] worked out at 8 ppm. Also, the “Results (transparency of neutralized solution)” value is given as “Clouded” in series [3] (FA 0.1%, benzalkonium chloride 0.01%); “Clouded” in series [3] (SCA 3%, benzalkonium chloride 0.01%); “Clouded” in series [3] (SDPA 0.05%, benzalkonium chloride 0.01%); “Clouded” in series [3] (SHA 0.2%, benzalkonium chloride 0.01%); “Clouded” in series [3] (SKA 3%, benzalkonium chloride 0.01%). In addition, the “transparency of solutions with eye drop components” value in series [3] (summary of Table 9) was “slightly opaque”. The MBC in series [5] was 4 ppm.
